Experimental data as given in patent US11739053B2, “P62-ZZ chemical inhibitor” (ID4PHARMA, LLC, priority 2011, dated 2023).

Tests used:
phospho-PKCζ = assay: TNF-α induced PKCζ phosphorylation in MM1.S cells; type: cell-based, human; settings: pre-treated 3 hours
Protocol: Compound 3 was tested for its capacity to block MM-stimulated signaling in marrow stromal cells, thereby resulting in less bone destruction and MM growth. The effects of the compound 3 on GFP-labeled MM1.S myeloma cell growth with/without stromal cells, IL-6 and VCAM-1 expression on stromal cells induced by TNF-α and OCL formation, and TNF-α induced PKCζ phosphorylation, the specific kinase enzyme activated p62-ZZ, were examined. GFP-labeled MM1.S myeloma cells or normal human CFU-GM, a source of OCL precursors, were then co-cultured with human stromal cells with the p62-ZZ inhibitor. […] VCAM-1 expression and IL-6 production induced by TNF-α on stromal cells was blocked by 30% and 90% respectively compared to vehicle levels. Furthermore, TNF-α induced PKC, phosphorylation blocked was in stromal cells and MM1.S when pre-treated with this p62-ZZ inhibitory compound for 3 hours.

MM1.S cells [1] = assay: Caspase 9, 7 and 3 cleavage in MM1.S cells, Western blot; type: cell-based, human; settings: 10 μM, after 16 hours
Protocol: (§1) FIG. 9A-C: 9A. […] MM1.S cells were cultured with 10 μM of p62-ZZ antagonist for the indicated time, and then cell lysates were collected. Caspase 9, 7 and 3 were detected by Western blotting using anti-caspase 9, 7 and 3 specific antibodies (Cell Signaling). FIG. 9B. Detection of Apoptosis using the TUNEL reaction with MM1.S cells treated with p62-ZZ antagonist. MM1.S cells were treated with 10/μM of p62-ZZ antagonist #3 for 24 hours and then the cells were collected and mounted on glass slides using the cytospin procedure. Terminal deoxynucleotidyl transferase nick end labeling (TUNEL) reactions were conducted using an In Situ Cell Death Detection Kit (Roche) according to the manufacturer's instructions. The stained cells were analyzed using a fluorescence microscope equipped with standard green filter. FIG. 9C. The p62-ZZ antagonist induced Reactive Oxygen Species in MM1.S cells. MM1.S cells were treated with 10 μM of p62-ZZ antagonist #3 for 6 hours. Cells were collected and stained for Reactive Oxygen Species (ROS) using a Total ROS detection kit (Enzo) according to the manufacturer's instructions. The expression of apoptosis markers in p62-ZZ antagonist treated on 25 MM cells was determined to determine the mechanism action of this antagonist.

MM1.S cells [2] = assay: TUNEL apoptosis detection in MM1.S cells; type: cell-based, human; settings: 10 μM, after 24 hours
Protocol: as §1

[3] = Exploratory metabolic studies

## OCCNCc1ccc(OCc2ccccc2)c(OCc2ccccc2)c1 [Compound 3, 2-[[3,4-bis(phenylmethoxy)phenyl]methylamino]ethanol]
phospho-PKCζ
  TNF-α induced PKCζ phosphorylation in MM1.S: blocked
MM1.S cells [1]
  cleavage of caspase 9, 7 and 3: induced cleavage
MM1.S cells [2]
  TUNEL staining of cells: positive TUNEL staining
[3]
  distinct peaks in metabolic studies (likely hydroxylation or glucuronidation): 3
